What was measured:
Experiment in all cases: DSF thermal shift, kinase panel
Type in all cases: binding
Conditions in all cases: 10 μM compound
BMXA = target: T1, BMXA (Homo sapiens, UniProt P51813)
T1 construct: purchased in-house (home-made panel, SGC-style construct names)
T1 sequence (P51813 1-675): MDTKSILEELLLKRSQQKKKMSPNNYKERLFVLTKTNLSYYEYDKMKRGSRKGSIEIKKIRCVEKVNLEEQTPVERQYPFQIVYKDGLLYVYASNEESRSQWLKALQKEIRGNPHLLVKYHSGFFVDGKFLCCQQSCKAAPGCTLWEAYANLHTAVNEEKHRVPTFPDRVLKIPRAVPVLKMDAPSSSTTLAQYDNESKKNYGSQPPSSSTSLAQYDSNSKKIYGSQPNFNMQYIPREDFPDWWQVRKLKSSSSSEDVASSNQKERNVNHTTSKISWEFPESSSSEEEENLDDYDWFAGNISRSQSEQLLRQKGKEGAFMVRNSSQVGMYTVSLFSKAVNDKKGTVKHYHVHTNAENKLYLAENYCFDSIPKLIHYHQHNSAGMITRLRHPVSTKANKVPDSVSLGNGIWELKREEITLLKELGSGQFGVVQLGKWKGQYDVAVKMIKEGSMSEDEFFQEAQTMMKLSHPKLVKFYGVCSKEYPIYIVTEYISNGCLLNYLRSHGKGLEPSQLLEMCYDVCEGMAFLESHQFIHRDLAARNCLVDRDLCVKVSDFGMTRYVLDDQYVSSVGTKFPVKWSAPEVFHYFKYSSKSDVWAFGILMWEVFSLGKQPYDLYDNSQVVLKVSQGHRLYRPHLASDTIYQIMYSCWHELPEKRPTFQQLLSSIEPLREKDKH
Summary of the method: (§1)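 Read-out is melting temperature shift (dTm), derived by Boltzmann fitting of fluorescence melt curves and referenced to protein/dye with 0.2% DMSO. Kinase 1 µM, compound 10 µM, phosphate buffer pH 7.5 with NaCl and glycerol; ramp 25→95 °C at 0.05 °C/s.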

CAMKK2B = target: T2, CAMKK2B (Homo sapiens, UniProt Q96RR4)
T2 construct: purchased in-house (home-made panel, SGC-style construct names)
T2 sequence (Q96RR4 161-449): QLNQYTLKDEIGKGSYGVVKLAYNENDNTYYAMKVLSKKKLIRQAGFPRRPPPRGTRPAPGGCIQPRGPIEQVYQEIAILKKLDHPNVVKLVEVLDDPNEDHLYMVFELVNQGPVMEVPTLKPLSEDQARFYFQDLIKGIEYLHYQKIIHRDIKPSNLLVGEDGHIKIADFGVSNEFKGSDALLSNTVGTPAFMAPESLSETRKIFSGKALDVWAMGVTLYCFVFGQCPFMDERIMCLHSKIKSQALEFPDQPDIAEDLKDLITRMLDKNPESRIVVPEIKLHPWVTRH
Summary of the method: as §1

CLK1 = target: T3, CLK1 (Homo sapiens, UniProt P49759)
T3 construct: purchased in-house (home-made panel, SGC-style construct names)
T3 sequence (P49759 whole entry): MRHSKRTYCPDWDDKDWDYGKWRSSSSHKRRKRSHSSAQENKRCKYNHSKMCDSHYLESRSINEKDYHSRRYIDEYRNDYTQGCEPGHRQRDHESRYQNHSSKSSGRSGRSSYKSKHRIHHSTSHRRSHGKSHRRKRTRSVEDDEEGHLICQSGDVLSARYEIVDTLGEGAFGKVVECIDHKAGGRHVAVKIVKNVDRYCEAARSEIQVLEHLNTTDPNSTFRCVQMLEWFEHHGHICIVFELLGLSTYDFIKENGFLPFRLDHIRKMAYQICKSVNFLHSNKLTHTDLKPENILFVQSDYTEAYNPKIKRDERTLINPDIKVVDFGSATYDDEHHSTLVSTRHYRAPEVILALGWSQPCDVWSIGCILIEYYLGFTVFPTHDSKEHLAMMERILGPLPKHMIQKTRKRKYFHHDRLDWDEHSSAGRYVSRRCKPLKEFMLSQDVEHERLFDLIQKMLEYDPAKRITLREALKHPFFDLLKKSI
Summary of the method: as §1

SRPK1A = target: T4, SRPK1A (Homo sapiens, UniProt Q96SB4)
T4 construct: purchased in-house (home-made panel, SGC-style construct names)
T4 sequence (Q96SB4 whole entry): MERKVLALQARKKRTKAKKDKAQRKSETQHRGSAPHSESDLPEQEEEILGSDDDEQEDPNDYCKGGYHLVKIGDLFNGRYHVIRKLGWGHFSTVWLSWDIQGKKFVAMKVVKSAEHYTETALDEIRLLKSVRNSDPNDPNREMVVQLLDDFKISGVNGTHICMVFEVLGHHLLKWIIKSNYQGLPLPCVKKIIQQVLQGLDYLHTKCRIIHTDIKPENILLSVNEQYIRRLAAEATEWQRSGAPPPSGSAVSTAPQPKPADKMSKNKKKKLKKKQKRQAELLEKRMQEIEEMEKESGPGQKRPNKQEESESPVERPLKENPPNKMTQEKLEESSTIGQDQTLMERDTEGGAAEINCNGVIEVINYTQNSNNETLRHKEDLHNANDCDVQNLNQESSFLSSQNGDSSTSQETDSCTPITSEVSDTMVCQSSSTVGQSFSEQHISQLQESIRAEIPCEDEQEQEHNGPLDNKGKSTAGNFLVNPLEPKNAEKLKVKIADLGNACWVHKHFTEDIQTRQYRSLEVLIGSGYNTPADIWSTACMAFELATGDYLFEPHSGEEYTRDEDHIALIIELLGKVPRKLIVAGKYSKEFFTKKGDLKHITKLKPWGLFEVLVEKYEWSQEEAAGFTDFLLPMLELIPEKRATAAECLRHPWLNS
Summary of the method: as §1

STK3 = target: T5, STK3 (Homo sapiens, UniProt Q13188)
T5 construct: purchased in-house (home-made panel, SGC-style construct names)
T5 sequence (Q13188 1-491): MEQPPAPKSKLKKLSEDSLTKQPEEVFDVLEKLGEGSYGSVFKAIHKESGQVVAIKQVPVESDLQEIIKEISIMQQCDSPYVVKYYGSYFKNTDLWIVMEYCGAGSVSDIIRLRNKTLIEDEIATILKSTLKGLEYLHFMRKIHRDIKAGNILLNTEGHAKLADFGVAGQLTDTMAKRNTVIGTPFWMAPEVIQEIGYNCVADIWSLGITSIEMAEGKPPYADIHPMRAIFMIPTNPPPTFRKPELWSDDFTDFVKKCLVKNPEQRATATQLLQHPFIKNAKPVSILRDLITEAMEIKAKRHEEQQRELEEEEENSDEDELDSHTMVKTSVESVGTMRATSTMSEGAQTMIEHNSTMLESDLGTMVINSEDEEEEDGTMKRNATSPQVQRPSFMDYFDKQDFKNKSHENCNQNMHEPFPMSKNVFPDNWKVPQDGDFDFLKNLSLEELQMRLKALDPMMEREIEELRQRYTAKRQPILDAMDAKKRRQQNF
Summary of the method: as §1

STK38LA = target: T6, STK38LA (Homo sapiens, UniProt Q9Y2H1)
T6 construct: TEV-cleavable (cleaved yes); made in house; host or cells: E. coli
T6 sequence (Q9Y2H1 whole entry): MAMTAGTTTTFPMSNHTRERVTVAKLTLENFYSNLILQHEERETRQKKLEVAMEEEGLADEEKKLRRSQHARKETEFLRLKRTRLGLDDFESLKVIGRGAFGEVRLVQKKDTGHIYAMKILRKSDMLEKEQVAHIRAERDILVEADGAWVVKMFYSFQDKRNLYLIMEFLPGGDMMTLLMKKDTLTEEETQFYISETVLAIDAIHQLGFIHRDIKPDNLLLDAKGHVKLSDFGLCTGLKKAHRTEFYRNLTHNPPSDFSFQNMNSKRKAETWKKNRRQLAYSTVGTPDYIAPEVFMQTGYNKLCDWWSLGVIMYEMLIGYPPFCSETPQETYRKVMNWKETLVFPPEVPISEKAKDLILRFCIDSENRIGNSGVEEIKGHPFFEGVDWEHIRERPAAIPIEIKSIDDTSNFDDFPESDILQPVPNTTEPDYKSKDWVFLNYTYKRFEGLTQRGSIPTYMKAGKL
Summary of the method: as §1

TRIB2A = target: T7, TRIB2A (Homo sapiens, UniProt Q92519)
T7 construct: TEV-cleavable (cleaved yes); made in house; host or cells: E. coli
T7 sequence (Q92519 1-343): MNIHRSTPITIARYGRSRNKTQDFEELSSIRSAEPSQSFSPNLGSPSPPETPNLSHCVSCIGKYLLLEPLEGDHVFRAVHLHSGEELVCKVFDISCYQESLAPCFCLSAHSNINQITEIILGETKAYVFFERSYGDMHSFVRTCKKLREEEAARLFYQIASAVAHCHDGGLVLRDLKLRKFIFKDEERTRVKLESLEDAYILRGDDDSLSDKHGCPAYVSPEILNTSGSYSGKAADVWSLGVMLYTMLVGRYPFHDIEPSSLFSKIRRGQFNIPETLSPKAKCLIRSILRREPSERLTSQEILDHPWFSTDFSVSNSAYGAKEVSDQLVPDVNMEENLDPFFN
Summary of the method: as §1

Cc1ccc(Nc2nsnc(Nc3cccc(C(N)=O)c3)c2=O)cc1O [Compound 1, 3-({5-[(3-Hydroxy-4-methylphenyl)amino]-4-oxo-4H-1,2,6-thiadiazin-3-yl}amino)benzamide]
ΔTm at 10 µM (BMXA): 0.1 °C | ΔTm at 10 µM (CAMKK2B): 0.5 °C | ΔTm at 10 µM (CLK1): 0.5 °C | ΔTm at 10 µM (SRPK1A): 0 °C | ΔTm at 10 µM (STK3): 0.2 °C | ΔTm at 10 µM (STK38LA): 0.2 °C | ΔTm at 10 µM (TRIB2A): 2.5 °C

Cc1ccc(Nc2nsnc(Nc3ccc(C(N)=O)cc3)c2=O)cc1O [Compound 2, 4-({5-[(3-Hydroxy-4-methylphenyl)amino]-4-oxo-4H-1,2,6-thiadiazin-3-yl}amino)benzamide]
ΔTm at 10 µM (BMXA): -0.1 °C | ΔTm at 10 µM (CAMKK2B): 2.9 °C | ΔTm at 10 µM (CLK1): 0.9 °C | ΔTm at 10 µM (SRPK1A): 1.8 °C | ΔTm at 10 µM (STK3): 2.1 °C | ΔTm at 10 µM (STK38LA): 0.4 °C

Cc1ccc(Nc2nsnc(Nc3ccc4c(c3)CS(=O)(=O)C4)c2=O)cc1O [Compound 3, 3-[(2,2-Dioxido-1,3-dihydrobenzo[c]thiophen-5-yl)amino]-5-[(3-hydroxy-4-methylphenyl)amino]-4H-1,2,6-thiadiazin-4-one]
ΔTm at 10 µM (BMXA): 0 °C | ΔTm at 10 µM (CAMKK2B): 2.3 °C | ΔTm at 10 µM (CLK1): 2.1 °C | ΔTm at 10 µM (SRPK1A): 0 °C | ΔTm at 10 µM (STK3): 1.1 °C | ΔTm at 10 µM (STK38LA): 0.8 °C | ΔTm at 10 µM (TRIB2A): 4.9 °C

CNC(=O)c1ccccc1Nc1nsnc(Nc2cccc(CS(C)(=O)=O)c2)c1=O [Compound 4, N-Methyl-2-([5-({3-[(methylsulfonyl)methyl]phenyl}amino)-4-oxo-4H-1,2,6-thiadiazin-3-yl]-amino}-benzamide]
ΔTm at 10 µM (BMXA): 0 °C | ΔTm at 10 µM (CAMKK2B): -0.4 °C | ΔTm at 10 µM (CLK1): 0 °C | ΔTm at 10 µM (SRPK1A): 0 °C | ΔTm at 10 µM (STK3): -0.4 °C | ΔTm at 10 µM (STK38LA): 0.4 °C | ΔTm at 10 µM (TRIB2A): ~1 °C | ΔTm (TRIB2A; 10 µM): 1,0 °C

CNC(=O)c1ccccc1Nc1nsnc(Nc2ccc(N3CCOCC3)cc2)c1=O [Compound 5, N-Methyl-2-({5-[(4-morpholinophenyl)amino]-4-oxo-4H-1,2,6-thiadiazin-3-yl}amino)benzamide]
ΔTm at 10 µM (BMXA): 0 °C | ΔTm at 10 µM (CAMKK2B): -0.5 °C | ΔTm at 10 µM (CLK1): 1 °C | ΔTm at 10 µM (SRPK1A): 0 °C | ΔTm at 10 µM (STK3): -0.3 °C | ΔTm at 10 µM (STK38LA): 0.3 °C | ΔTm at 10 µM (TRIB2A): ~1 °C

Reference: article PMC6019134, “1,2,6-Thiadiazinones as Novel Narrow Spectrum Calcium/Calmodulin-Dependent Protein Kinase Kinase 2 (CaMKK2) Inhibitors” (Molecules : A Journal of Synthetic Chemistry and Natural …, 2018)
